Test results as given in patent publication US12091405B2, “Substituted pyrazole compounds as indoleamine 2,3-dioxygenase inhibitors” (Merck Sharp & Dohme LLC, priority 2018, dated 2024).

Molecular target: IDO1 (Homo sapiens, UniProt P14902)
Test: IDO1 Cellular Assay in HeLa Cells Stimulated with IFNγ
Assay type: cell-based
Details: IFNγ 100 ng/mL, 300 uM L-tryptophan, about 48 hours, fluorescence readout, read-out: IDO1 HELA Cell Assay, IC50

IDO1, sequence (P14902 whole entry): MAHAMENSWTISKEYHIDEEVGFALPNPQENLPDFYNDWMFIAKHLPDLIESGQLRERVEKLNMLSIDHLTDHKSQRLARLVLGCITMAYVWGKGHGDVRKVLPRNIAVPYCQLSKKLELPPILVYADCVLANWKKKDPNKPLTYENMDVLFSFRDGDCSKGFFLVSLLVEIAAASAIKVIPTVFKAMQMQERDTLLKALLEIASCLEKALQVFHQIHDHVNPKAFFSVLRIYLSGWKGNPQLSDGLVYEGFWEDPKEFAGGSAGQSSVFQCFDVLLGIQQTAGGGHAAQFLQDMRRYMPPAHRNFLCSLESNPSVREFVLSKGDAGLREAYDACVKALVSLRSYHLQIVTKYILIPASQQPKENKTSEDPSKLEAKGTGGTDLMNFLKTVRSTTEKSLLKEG

Point of comparison: `C[C@@H]1CN(C(=O)c2nn(CC(=O)N3CCC(c4ccc(Cl)c(Cl)c4)CC3)c3c2CCC3)C[C@H](C)O1` [Example 123, 1-[4-(3,4-dichlorophenyl)piperidin-1-yl]-2-{3-[(2R,6S)-2,6-dimethylmorpholine-4-carbonyl]-5,6-dihydrocyclopenta[c]pyrazol-1(4H)-yl}ethan-1-one], IC50 54.5 nM. Against it:
- Cc1cccc(C2CCN(C(=O)Cn3nc(C(=O)N4CCC(OCCO)CC4)c4c3CCCC4)CC2)c1C [Example 38, 1-(4-(2,3-dimethylphenyl)piperidin-1-yl)-2-(3-(4-(2-hydroxyethoxy)piperidine-1-carbonyl)-4,5,6,7-tetrahydro-1H-indazol-1-yl)ethanone] — 29-fold lower, 1.9 nM
- C[C@@H]1CN(C(=O)c2nn(CC(=O)N3CCC(c4cccc(F)c4F)CC3)c3c2CCC3)C[C@H](C)O1 [Example 121, 1-[4-(2,3-difluorophenyl)piperidin-1-yl]-2-{3-[(2R,6S)-2,6-dimethylmorpholine-4-carbonyl]-5,6-dihydrocyclopenta[c]pyrazol-1(4H)-yl}ethan-1-one] — within 1.5-fold, 53.2 nM
- Cc1cccc(C2(F)CCN(C(=O)Cn3nc(C(=O)N4CCC(OCCO)CC4)c4c3C[C@H]3C[C@@H]43)CC2)c1C [Example 8, 1-(4-(2,3-dimethylphenyl)-4-fluoropiperidin-1-yl)-2-((3bR,4aR)-3-(4-(2-hydroxyethoxy)piperidine-1-carbonyl)-3b,4,4a,5-tetrahydro-1H-cyclopropa[3,4]cyclopenta[1,2-c]pyrazol-1-yl)ethanone] — 54-fold lower, 1 nM
- Cc1cccc(C2CCN(C(=O)Cn3nc(C(=O)N4CCC(C)(O)CC4)c4c3CCC4)CC2)c1C [Example 40, 1-(4-(2,3-dimethylphenyl)piperidin-1-yl)-2-(3-(4-hydroxy-4-methylpiperidine-1-carbonyl)-5,6-dihydrocyclopenta[c]pyrazol-1(4H)-yl)ethan-1-one] — 19-fold lower, 2.8 nM
- C[C@@H]1CN(C(=O)c2nn(CC(=O)N3CCC(c4cc(F)ccc4F)CC3)c3c2CCC3)C[C@H](C)O1 [Example 150, 1-[4-(2,5-difluorophenyl)piperidin-1-yl]-2-{3-[(2R,6S)-2,6-dimethylmorpholine-4-carbonyl]-5,6-dihydrocyclopenta[c]pyrazol-1(4H)-yl}ethan-1-one] — 2.2-fold higher, 122 nM
- Cc1cccc(C2CCN(C(=O)Cn3nc(C(=O)N4CC[C@H](O)[C@H](F)C4)c4c3CCC4)CC2)c1C [Example 59, 1-(4-(2,3-dimethylphenyl)piperidin-1-yl)-2-(3-((3R,4S)-3-fluoro-4-hydroxypiperidine-1-carbonyl)-5,6-dihydrocyclopenta[c]pyrazol-1(4H)-yl)ethanone] — 30-fold lower, 1.8 nM
- C[C@@H]1CN(C(=O)c2nn(CC(=O)N3CCC(c4cccc5c4OC(F)(F)O5)CC3)c3c2CCC3)C[C@H](C)O1 [Example 153, 1-[4-(2,2-difluoro-2H-1,3-benzodioxol-4-yl)piperidin-1-yl]-2-{3-[(2R,6S)-2,6-dimethylmorpholine-4-carbonyl]-5,6-dihydrocyclopenta[c]pyrazol-1(4H)-yl}ethan-1-one] — 2.5-fold higher, 138 nM
- COc1c(F)cc(C2CCN(C(=O)Cn3nc(C(=O)N4C[C@@H](C)O[C@@H](C)C4)c4c3CCC4)CC2)cc1Cl [Example 95, 1-[4-(3-chloro-5-fluoro-4-methoxyphenyl)piperidin-1-yl]-2-{3-[(2R,6S)-2,6-dimethylmorpholine-4-carbonyl]-5,6-dihydrocyclopenta[c]pyrazol-1(4H)-yl}ethan-1-one] — 2.8-fold lower, 19.3 nM
- Cc1ccc(F)c(C2CCN(C(=O)Cn3nc(C(=O)N4C[C@@H](C)O[C@@H](C)C4)c4c3CCC4)CC2)c1 [Example 119, 2-{3-[(2R,6S)-2,6-dimethylmorpholine-4-carbonyl]-5,6-dihydrocyclopenta[c]pyrazol-1(4H)-yl}-1-[4-(2-fluoro-5-methylphenyl)piperidin-1-yl]ethan-1-one] — within 1.5-fold, 52.1 nM
- C[C@@H]1CN(C(=O)c2nn(CC(=O)N3CC[C@@H](c4ccccc4)[C@@H](C)C3)c3c2CCC3)C[C@H](C)O1 [Example 79, 2-{3-[(2R,6S)-2,6-dimethylmorpholine-4-carbonyl]-5,6-dihydrocyclopenta[c]pyrazol-1(4H)-yl}-1-[(3R,4R)-3-methyl-4-phenylpiperidin-1-yl]ethan-1-one] — 6.5-fold higher, 354 nM
- C[C@@H]1CN(C(=O)c2nn(CC(=O)N3CCC(c4ccccc4C(F)(F)F)CC3)c3c2CCC3)C[C@H](C)O1 [Example 71, 2-{3-[(2R,6S)-2,6-dimethylmorpholine-4-carbonyl]-5,6-dihydrocyclopenta[c]pyrazol-1(4H)-yl}-1-{4-[2-(trifluoromethyl)phenyl]piperidin-1-yl}ethan-1-one] — 2-fold higher, 107 nM
- C[C@@H]1CN(C(=O)c2nn(CC(=O)N3CCC(c4cc(F)cc(C(F)(F)F)c4)CC3)c3c2CCC3)C[C@H](C)O1 [Example 141, 2-{3-[(2R,6S)-2,6-dimethylmorpholine-4-carbonyl]-5,6-dihydrocyclopenta[c]pyrazol-1(4H)-yl}-1-{4-[3-fluoro-5-(trifluoromethyl)phenyl]piperidin-1-yl}ethan-1-one] — 1.8-fold higher, 97.4 nM
- C[C@@H]1CN(C(=O)c2nn(CC(=O)N3CCC(c4cccc(C(C)(F)F)c4)CC3)c3c2CCC3)C[C@H](C)O1 [Example 159, 1-{4-[3-(1,1-difluoroethyl)phenyl]piperidin-1-yl}-2-{3-[(2R,6S)-2,6-dimethylmorpholine-4-carbonyl]-5,6-dihydrocyclopenta[c]pyrazol-1(4H)-yl}ethan-1-one] — 2.9-fold higher, 156 nM
- Cc1cc(C(F)(F)F)ccc1C1CCN(C(=O)Cn2nc(C(=O)N3C[C@@H](C)O[C@@H](C)C3)c3c2CCC3)CC1 [Example 162, 2-{3-[(2R,6S)-2,6-dimethylmorpholine-4-carbonyl]-5,6-dihydrocyclopenta[c]pyrazol-1(4H)-yl}-1-{4-[2-methyl-4-(trifluoromethyl)phenyl]piperidin-1-yl}ethan-1-one] — 3.2-fold higher, 173 nM
- C[C@@H]1CN(C(=O)c2nn(CC(=O)N3CCC(c4cccc5c4CCC5)CC3)c3c2CCC3)C[C@H](C)O1 [Example 86, 1-[4-(2,3-dihydro-1H-inden-4-yl)piperidin-1-yl]-2-{3-[(2R,6S)-2,6-dimethylmorpholine-4-carbonyl]-5,6-dihydrocyclopenta[c]pyrazol-1(4H)-yl}ethan-1-one] — 7.5-fold lower, 7.3 nM
- CC(C)c1ccc(C2CCN(C(=O)Cn3nc(C(=O)N4C[C@@H](C)O[C@@H](C)C4)c4c3CCC4)CC2)cc1 [Example 168, 2-{3-[(2R,6S)-2,6-dimethylmorpholine-4-carbonyl]-5,6-dihydrocyclopenta[c]pyrazol-1(4H)-yl}-1-{4-[4-(propan-2-yl)phenyl]piperidin-1-yl}ethan-1-one] — 5.4-fold higher, 296 nM
- C[C@@H]1CN(C(=O)c2nn(CC(=O)N3CCC(c4ccccc4Cl)CC3)c3c2CCC3)C[C@H](C)O1 [Example 157, 1-[4-(2-chlorophenyl)piperidin-1-yl]-2-{3-[(2R,6S)-2,6-dimethylmorpholine-4-carbonyl]-5,6-dihydrocyclopenta[c]pyrazol-1(4H)-yl}ethan-1-one] — 2.8-fold higher, 150 nM
- C[C@@H]1CN(C(=O)c2nn(CC(=O)N3CCCC(c4ccccc4)CC3)c3c2CCC3)C[C@H](C)O1 (stereo partly drawn) [Example 74, 2-{3-[(2R,6S)-2,6-dimethylmorpholine-4-carbonyl]-5,6-dihydrocyclopenta[c]pyrazol-1(4H)-yl}-1-(4-phenylazepan-1-yl)ethan-1-one] — 3.1-fold higher, 170 nM
- COc1ccc(C2CCN(C(=O)Cn3nc(C(=O)N4C[C@@H](C)O[C@@H](C)C4)c4c3CCC4)CC2)c(F)c1 [Example 137, 2-{3-[(2R,6S)-2,6-dimethylmorpholine-4-carbonyl]-5,6-dihydrocyclopenta[c]pyrazol-1(4H)-yl}-1-[4-(2-fluoro-4-methoxyphenyl)piperidin-1-yl] ethan-1-one] — 1.6-fold higher, 85 nM
- C[C@@H]1CN(C(=O)c2nn(CC(=O)N3CCC(c4ccccc4Cl)C3)c3c2CCC3)C[C@H](C)O1 (stereo partly drawn) [Example 78, 1-[3-(2-chlorophenyl)pyrrolidin-1-yl]-2-{3-[(2R,6S)-2,6-dimethylmorpholine-4-carbonyl]-5,6-dihydrocyclopenta[c]pyrazol-1(4H)-yl}ethan-1-one] — 6.3-fold higher, 346 nM
- Cc1cc(F)ccc1C1CCN(C(=O)Cn2nc(C(=O)N3CC[C@@H](O)[C@H](F)C3)c3c2CCC3)CC1 [Example 54, 1-(4-(4-fluoro-2-methylphenyl)piperidin-1-yl)-2-(3-((3R,4R)-3-fluoro-4-hydroxypiperidine-1-carbonyl)-5,6-dihydrocyclopenta[c]pyrazol-1(4H)-yl)ethanone] — 3-fold higher, 162 nM
- C[C@@H]1CN(C(=O)c2nn(CC(=O)N3CCC(c4ccc(C(F)(F)F)cc4F)CC3)c3c2CCC3)C[C@H](C)O1 [Example 147, 2-{3-[(2R,6S)-2,6-dimethylmorpholine-4-carbonyl]-5,6-dihydrocyclopenta[c]pyrazol-1(4H)-yl}-1-{4-[2-fluoro-4-(trifluoromethyl)phenyl]piperidin-1-yl}ethan-1-one] — 2-fold higher, 109 nM
- Cc1cc(Cl)cc(C2CCN(C(=O)Cn3nc(C(=O)N4C[C@@H](C)O[C@@H](C)C4)c4c3CCC4)CC2)c1 [Example 148, 1-[4-(3-chloro-5-methylphenyl)piperidin-1-yl]-2-{3-[(2R,6S)-2,6-dimethylmorpholine-4-carbonyl]-5,6-dihydrocyclopenta[c]pyrazol-1(4H)-yl}ethan-1-one] — 2.1-fold higher, 117 nM
- C[C@@H]1CN(C(=O)c2nn(CC(=O)N3CCC(c4ccccc4C(F)(F)F)C3)c3c2CCC3)C[C@H](C)O1 (stereo partly drawn) [Example 73, 2-{3-[(2R,6S)-2,6-dimethylmorpholine-4-carbonyl]-5,6-dihydrocyclopenta[c]pyrazol-1(4H)-yl}-1-{3-[2-(trifluoromethyl)phenyl]pyrrolidin-1-yl}ethan-1-one] — 2.8-fold higher, 152 nM
- C[C@@H]1CN(C(=O)c2nn(CC(=O)N3CCC(c4ccc(F)c(C(F)F)c4)CC3)c3c2CCC3)C[C@H](C)O1 [Example 133, 1-{4-[3-(difluoromethyl)-4-fluorophenyl]piperidin-1-yl}-2-{3-[(2R,6S)-2,6-dimethylmorpholine-4-carbonyl]-5,6-dihydrocyclopenta[c]pyrazol-1(4H)-yl}ethan-1-one] — within 1.5-fold, 81.7 nM
